Measured values reported in BigSolDB 2.1.

CCc1cccc(CC)c1/N=C(C)/C=C(/C)Nc1c(CC)cccc1CC
solubility (mole fraction)
Settings	268.15 K	273.15 K	278.15 K	283.15 K	288.15 K	293.15 K	298.15 K	303.15 K	308.15 K	313.15 K
in THF	0.134	0.147	0.164	0.186	0.213	0.246	0.282	0.319	–	–
in diethyl ether	0.0732	0.0961	0.123	0.152	0.184	0.215	0.248	0.283	–	–
in ethanol	0.00158	0.00186	0.0022	0.00258	0.00315	0.00369	0.00476	0.00595	0.00738	0.00964
in methanol	0.0003	0.00037	0.00047	0.00058	0.00072	0.00089	0.0011	0.00138	0.00173	0.0022
in n-hexane	0.0373	0.0478	0.0609	0.0769	0.0964	0.12	0.148	0.182	0.223	0.271
in toluene	0.147	0.162	0.178	0.196	0.216	0.236	0.259	0.284	0.312	0.342
